These results are taken from ChEMBL document CHEMBL2375339, “Synthesis and evaluation of 7,8-dehydrorutaecarpine derivatives as potential multifunctional agents for the treatment of Alzheimer's disease” (Eur J Med Chem, 2013).

One assay deals with Acetylcholinesterase (Electrophorus electricus, UniProt O42275).
In another assay the target is Cholinesterase (Equus caballus, UniProt P81908).
The target of assay [1] is Acetylcholinesterase (Homo sapiens) (UniProt P22303). The assay is described as follows: Ratio of compound activity to curcumin activity for inhibition of acetylcholinesterase (unknown origin)-induced amyloid beta(1 to 42) aggregation.
For assay [2] the target is unchanged. Briefly: Ratio of compound activity to tacrine activity for inhibition of acetylcholinesterase (unknown origin)-induced amyloid beta(1 to 42) aggregation.
Assay [3] concerns the target Acetylcholinesterase (Electrophorus electricus) (UniProt O42275). The assay is described as follows: Inhibition of electric eel acetylcholinesterase using acetylthiocholine as substrate up to 100 uM incubated for 15 mins followed by substrate addition measured for 2 mins by Ellman's method relative to control.
A short description of another assay: cells. The settings on record: Homo sapiens, SH-SY5Y, 48 h.
Assay [4] deals with Acetylcholinesterase (Electrophorus electricus) (UniProt O42275). Briefly: Mixed-type inhibition of electric eel AChE using acetylthiocholine as substrate at 3.125 to 50 nM after 15 mins by Lineweaver-Burk plot analysis.
Assay [5] shares this target. Briefly: Ratio of tacrine IC50 to compound IC50 for electric eel acetylcholinesterase.

Calls of active or inactive are those of the source. The rule behind the calls is not given here.

Chain of Cholinesterase (P81908 whole entry): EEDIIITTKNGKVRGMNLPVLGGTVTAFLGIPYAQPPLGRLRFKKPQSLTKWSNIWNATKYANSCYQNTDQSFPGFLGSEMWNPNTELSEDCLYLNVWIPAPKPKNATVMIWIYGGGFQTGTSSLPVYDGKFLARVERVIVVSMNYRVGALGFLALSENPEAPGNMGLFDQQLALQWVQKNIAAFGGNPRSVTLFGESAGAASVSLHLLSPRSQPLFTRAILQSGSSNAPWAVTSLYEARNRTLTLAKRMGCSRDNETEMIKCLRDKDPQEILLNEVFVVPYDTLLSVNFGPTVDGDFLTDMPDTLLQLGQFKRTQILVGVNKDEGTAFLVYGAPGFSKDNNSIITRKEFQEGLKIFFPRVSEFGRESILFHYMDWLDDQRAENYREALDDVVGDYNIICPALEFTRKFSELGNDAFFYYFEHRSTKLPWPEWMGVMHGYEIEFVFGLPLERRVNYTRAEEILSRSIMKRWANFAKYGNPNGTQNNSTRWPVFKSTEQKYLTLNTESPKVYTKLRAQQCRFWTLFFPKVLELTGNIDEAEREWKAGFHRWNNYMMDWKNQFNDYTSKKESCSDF
Chain of Acetylcholinesterase (Electrophorus electricus) (O42275 24-633 limits assumed): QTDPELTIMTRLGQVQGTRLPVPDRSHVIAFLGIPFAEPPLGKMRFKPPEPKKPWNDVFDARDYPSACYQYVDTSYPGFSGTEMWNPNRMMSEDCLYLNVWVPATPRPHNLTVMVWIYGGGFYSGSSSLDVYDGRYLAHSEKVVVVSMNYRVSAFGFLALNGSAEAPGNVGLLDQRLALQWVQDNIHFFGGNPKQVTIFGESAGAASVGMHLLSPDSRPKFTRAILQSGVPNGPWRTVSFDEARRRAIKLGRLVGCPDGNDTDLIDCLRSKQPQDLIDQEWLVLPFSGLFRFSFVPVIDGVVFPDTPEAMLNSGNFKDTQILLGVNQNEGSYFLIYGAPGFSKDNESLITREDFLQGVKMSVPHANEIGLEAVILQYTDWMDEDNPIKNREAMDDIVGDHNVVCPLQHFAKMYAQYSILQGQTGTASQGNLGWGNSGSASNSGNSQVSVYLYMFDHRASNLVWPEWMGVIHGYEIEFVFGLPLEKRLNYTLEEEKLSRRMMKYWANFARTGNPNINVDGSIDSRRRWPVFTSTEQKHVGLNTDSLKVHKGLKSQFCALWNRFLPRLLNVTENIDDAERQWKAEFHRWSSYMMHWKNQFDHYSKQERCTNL
Chain of Acetylcholinesterase (O42275 whole entry): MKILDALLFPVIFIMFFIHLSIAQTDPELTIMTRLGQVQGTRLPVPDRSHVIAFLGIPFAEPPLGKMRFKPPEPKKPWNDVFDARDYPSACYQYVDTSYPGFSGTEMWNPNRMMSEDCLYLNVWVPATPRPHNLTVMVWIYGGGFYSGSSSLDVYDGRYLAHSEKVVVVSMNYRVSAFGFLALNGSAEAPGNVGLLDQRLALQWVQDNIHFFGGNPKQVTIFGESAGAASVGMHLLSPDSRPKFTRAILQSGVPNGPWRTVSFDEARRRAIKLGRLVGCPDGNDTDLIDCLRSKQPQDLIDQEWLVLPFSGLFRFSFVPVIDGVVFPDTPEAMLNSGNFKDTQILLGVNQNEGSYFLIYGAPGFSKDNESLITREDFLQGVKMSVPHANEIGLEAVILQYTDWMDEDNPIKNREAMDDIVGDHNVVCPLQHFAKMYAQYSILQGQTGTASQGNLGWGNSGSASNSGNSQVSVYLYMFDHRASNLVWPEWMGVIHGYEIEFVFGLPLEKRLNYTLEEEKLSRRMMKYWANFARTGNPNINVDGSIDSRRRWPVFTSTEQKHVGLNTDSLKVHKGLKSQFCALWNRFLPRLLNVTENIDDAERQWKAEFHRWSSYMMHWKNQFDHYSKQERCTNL
Chain of Acetylcholinesterase (Homo sapiens) (P22303 whole entry): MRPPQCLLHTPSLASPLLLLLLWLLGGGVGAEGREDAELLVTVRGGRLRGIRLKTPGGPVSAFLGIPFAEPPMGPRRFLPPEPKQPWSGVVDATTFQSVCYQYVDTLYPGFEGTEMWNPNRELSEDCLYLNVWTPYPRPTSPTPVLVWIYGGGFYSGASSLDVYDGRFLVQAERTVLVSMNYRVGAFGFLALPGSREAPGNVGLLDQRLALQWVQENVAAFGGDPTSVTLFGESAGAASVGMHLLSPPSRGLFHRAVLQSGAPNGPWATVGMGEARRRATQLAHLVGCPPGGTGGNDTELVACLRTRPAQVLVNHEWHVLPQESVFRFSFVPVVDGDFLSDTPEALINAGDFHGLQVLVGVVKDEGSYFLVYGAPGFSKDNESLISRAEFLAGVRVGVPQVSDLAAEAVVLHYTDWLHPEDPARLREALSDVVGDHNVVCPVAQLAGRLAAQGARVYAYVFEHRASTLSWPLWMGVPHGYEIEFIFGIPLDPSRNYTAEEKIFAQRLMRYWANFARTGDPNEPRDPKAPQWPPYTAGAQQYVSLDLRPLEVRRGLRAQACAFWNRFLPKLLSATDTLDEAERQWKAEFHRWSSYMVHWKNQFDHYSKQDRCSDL
Description for cells: Cytotoxicity against human SH-SY5Y cells assessed as cell viability after 48 hrs by MTT assay

For the compound `Cn1cc[n+](CCCC(=O)Nc2ccc3nc4c5[nH]c6ccccc6c5ccn4c(=O)c3c2)c1`, the figures for the concentration for half-maximal inhibition (IC50) at Acetylcholinesterase and at Cholinesterase were 0.0117 µM and 8.2 µM, respectively. Moreover, the Ratio was 2.2 in assay [1] and 15.3 in assay [2]. The compound also came in with an inhibition in assay [3] of 20%.
Take `C[N+](C)(C)CCC(=O)Nc1ccc2nc3c4[nH]c5ccccc5c4ccn3c(=O)c2c1`: the half-inhibitory concentration (IC50) was 0.197 µM at Acetylcholinesterase, 29.2 µM in “cells” and 37.2 µM against Cholinesterase. The Ratio in assay [1] was found to be 2.2; in assay [2] it was 15.3. In assay [3], this compound returned an inhibition of 20%.
As for `O=C(CCCc1ccccc1)Nc1ccc2nc3c4[nH]c5ccccc5c4ccn3c(=O)c2c1`, the IC50 came out at 0.136 µM at Acetylcholinesterase and 24.6 µM against Cholinesterase. Moreover, the Ratio in assay [1] amounted to 2.2; in assay [2], 15.3. In assay [3], the inhibition came to 20%.
For the compound `O=C(Cc1ccccc1)Nc1ccc2nc3c4[nH]c5ccccc5c4ccn3c(=O)c2c1`, the figures for the half-maximal inhibitory concentration (IC50) against Acetylcholinesterase and against Cholinesterase were 0.116 µM and 24.9 µM, respectively. Further, the results for the Ratio in assay [1] and in assay [2] were 2.2 and 15.3, respectively. This compound also returned an inhibition in assay [3] of 20%.
Turning to `CCN(CC)CCC(=O)Nc1ccc2nc3c4[nH]c5ccccc5c4ccn3c(=O)c2c1`, the IC50 is 0.0641 µM against Acetylcholinesterase, 12.4 µM in “cells” and 28.3 µM against Cholinesterase. The Ratio in assay [1] came to 2.2; in assay [2] it was 15.3. This compound also registered an inhibition in assay [3] of 20%.
Regarding `O=C(CCOc1cccnc1)Nc1ccc2nc3c4[nH]c5ccccc5c4ccn3c(=O)c2c1`, the IC50 turned out to be 0.0143 µM on Acetylcholinesterase and 6.43 µM on Cholinesterase. Also, the results for the Ratio in assay [1] and in assay [2] were 2.2 and 15.3, respectively. For the same compound, the inhibition in assay [3] was 20%.
With `O=C(CC[n+]1cccc(F)c1)Nc1ccc2nc3c4[nH]c5ccccc5c4ccn3c(=O)c2c1`, the half-inhibitory concentration (IC50) at Acetylcholinesterase is 0.0021 µM; in the assay “cells” it was over 100 µM; against Cholinesterase, 3.49 µM. Moreover, the Ratio was determined as 2.2 in assay [1] and 15.3 in assay [2]. The inhibition in assay [3] was 20%.
With `O=C(CN1CCCC1)Nc1ccc2nc3c4[nH]c5ccccc5c4ccn3c(=O)c2c1`, the values for the IC50 against Acetylcholinesterase, in “cells” and on Cholinesterase were 0.0593 µM, 2.9 µM and 14.4 µM, respectively. Also, the Ratio in assay [1] was 2.2; in assay [2] it was 15.3. The compound also registered an inhibition in assay [3] of 20%.
Turning to `CN(C)CCC(=O)Nc1ccc2nc3c4[nH]c5ccccc5c4ccn3c(=O)c2c1`, the results for the 50% inhibitory concentration (IC50) against Acetylcholinesterase, in “cells” and on Cholinesterase were 0.0561 µM, 5.5 µM and 21.4 µM, respectively. Also, the Ratio came out at 2.2 in assay [1] and 15.3 in assay [2]. The compound also registered an inhibition in assay [3] of 20%.
Regarding `CCN(CC)CC(=O)Nc1ccc2nc3c4[nH]c5ccccc5c4ccn3c(=O)c2c1`, the IC50 was determined as 0.0704 µM against Acetylcholinesterase, 2.3 µM in “cells” and 24.1 µM against Cholinesterase. Moreover, the results for the Ratio in assay [1] and in assay [2] were 2.2 and 15.3, respectively. This compound displayed an inhibition in assay [3] of 20%.
As to `O=C(CCN1CCCC1)Nc1ccc2nc3c4[nH]c5ccccc5c4ccn3c(=O)c2c1`, the 50% inhibitory concentration (IC50) amounted to 0.0139 µM at Acetylcholinesterase, 21.2 µM in “cells” and 14.9 µM against Cholinesterase. Further, the Ratio is 2.2 in assay [1] and 15.3 in assay [2]. Further, the inhibition entry in assay [4] is “Active”. In assay [3], the inhibition turned out to be 20%.
As for `O=C(CN1CCOCC1)Nc1ccc2nc3c4[nH]c5ccccc5c4ccn3c(=O)c2c1`, the IC50 against Acetylcholinesterase was 0.0878 µM; in “cells”, 9.9 µM; against Cholinesterase, 28.5 µM. Further, the values for the Ratio in assay [1] and in assay [2] were 2.2 and 15.3, respectively. In assay [3], this compound registered an inhibition of 20%.
Regarding `O=C(CCC[n+]1ccccc1)Nc1ccc2nc3c4[nH]c5ccccc5c4ccn3c(=O)c2c1`, the results for the IC50 at Acetylcholinesterase and at Cholinesterase were 0.0039 µM and 4.16 µM, respectively. Also, the Ratio was determined as 2.2 in assay [1] and 15.3 in assay [2]. This compound also registered an inhibition in assay [3] of 20%.
On to `O=C(COc1cccnc1)Nc1ccc2nc3c4[nH]c5ccccc5c4ccn3c(=O)c2c1`, for which the half-inhibitory concentration (IC50) at Acetylcholinesterase stood at 0.00309 µM; on Cholinesterase it was 7.3 µM. In addition, the Ratio was determined as 2.2 in assay [1] and 15.3 in assay [2]. In addition, the inhibition in assay [3] amounted to 20%.
On to `CN1CCN(CC(=O)Nc2ccc3nc4c5[nH]c6ccccc6c5ccn4c(=O)c3c2)CC1`, for which the IC50 on Acetylcholinesterase worked out at 0.158 µM; in the assay “cells”, 8.6 µM; against Cholinesterase it was 29.1 µM. For the same compound, the Ratio was determined as 2.2 in assay [1] and 15.3 in assay [2]. The inhibition in assay [3] is 20%.
As to `O=C(CNc1ccccc1)Nc1ccc2nc3c4[nH]c5ccccc5c4ccn3c(=O)c2c1`, the 50% inhibitory concentration (IC50) was determined as 0.0779 µM against Acetylcholinesterase and 25.3 µM against Cholinesterase. Besides, the Ratio was found to be 2.2 in assay [1] and 15.3 in assay [2]. In addition, the inhibition in assay [3] is 20%.
As for `C[N+]1(CCC(=O)Nc2ccc3nc4c5[nH]c6ccccc6c5ccn4c(=O)c3c2)CCCC1`, the concentration for half-maximal inhibition (IC50) against Acetylcholinesterase is 0.137 µM; in “cells”, 19.1 µM; on Cholinesterase, 17.1 µM. Further, the values for the Ratio in assay [1] and in assay [2] were 2.2 and 15.3, respectively. Also, the inhibition in assay [3] turned out to be 20%.
For the compound `Cn1cc[n+](CCC(=O)Nc2ccc3nc4c5[nH]c6ccccc6c5ccn4c(=O)c3c2)c1`, the half-maximal inhibitory concentration (IC50) against Acetylcholinesterase was 0.0093 µM; in the assay “cells” it was over 100 µM; at Cholinesterase it was 7.02 µM. The results for the Ratio in assay [1] and in assay [2] were 2.2 and 15.3, respectively. For the same compound, in assay [3], the inhibition stood at 20%.
In the case of `O=C(CCCN1CCCC1)Nc1ccc2nc3c4[nH]c5ccccc5c4ccn3c(=O)c2c1`, the results for the IC50 against Acetylcholinesterase and on Cholinesterase were 0.0846 µM and 18.5 µM, respectively. Also, the values for the Ratio in assay [1] and in assay [2] were 2.2 and 15.3, respectively. The compound also returned an inhibition in assay [3] of 20%.
As to `CN(C)CC(=O)Nc1ccc2nc3c4[nH]c5ccccc5c4ccn3c(=O)c2c1`, the 50% inhibitory concentration (IC50) came out at 0.0701 µM at Acetylcholinesterase, 4.1 µM in the assay “cells” and 26.5 µM at Cholinesterase. Also, the Ratio in assay [1] is 2.2; in assay [2], 15.3. Further, the inhibition in assay [3] was 20%.
Take `O=C(CCc1ccccc1)Nc1ccc2nc3c4[nH]c5ccccc5c4ccn3c(=O)c2c1`: the IC50 at Acetylcholinesterase turned out to be 0.108 µM; on Cholinesterase, 26.1 µM. For the same compound, the Ratio in assay [1] was found to be 2.2; in assay [2] it was 15.3. Moreover, the inhibition in assay [3] came out at 20%.
As to `CN1CCN(CCC(=O)Nc2ccc3nc4c5[nH]c6ccccc6c5ccn4c(=O)c3c2)CC1`, the IC50 on Acetylcholinesterase is 0.141 µM; in “cells”, 13.3 µM; at Cholinesterase, 28.9 µM. Besides, the results for the Ratio in assay [1] and in assay [2] were 2.2 and 15.3, respectively. In assay [3], the inhibition was 20%.
Consider `Cn1cc[n+](CC(=O)Nc2ccc3nc4c5[nH]c6ccccc6c5ccn4c(=O)c3c2)c1`, for which the values for the IC50 at Acetylcholinesterase, in the assay “cells” and against Cholinesterase were 0.008 µM, over 100 µM and 7.34 µM, respectively. Moreover, the Ratio in assay [1] is 2.2; in assay [2] it was 15.3. Also, in assay [3], the inhibition was 20%.
For the compound `O=C(CCN1CCOCC1)Nc1ccc2nc3c4[nH]c5ccccc5c4ccn3c(=O)c2c1`, the IC50 turned out to be 0.0786 µM at Acetylcholinesterase, 3.1 µM in “cells” and 27.6 µM against Cholinesterase. The Ratio in assay [1] turned out to be 2.2; in assay [2] it was 15.3. The inhibition in assay [3] stood at 20%.
With `O=C(CC[n+]1ccccc1)Nc1ccc2nc3c4[nH]c5ccccc5c4ccn3c(=O)c2c1`, the concentration for half-maximal inhibition (IC50) was 0.0023 µM against Acetylcholinesterase, over 100 µM in “cells” and 4.29 µM on Cholinesterase. The Ratio worked out at 2.2 in assay [1] and 15.3 in assay [2]. Moreover, the inhibition in assay [3] was 20%.
As to `O=C(CN1CCCCC1)Nc1ccc2nc3c4[nH]c5ccccc5c4ccn3c(=O)c2c1`, the IC50 against Acetylcholinesterase came out at 0.07 µM; in the assay “cells”, 6.3 µM; on Cholinesterase it was 23.2 µM. The Ratio in assay [1] worked out at 2.2; in assay [2], 15.3. The compound further gave an inhibition in assay [3] of 20%.
`O=C(C[n+]1ccccc1)Nc1ccc2nc3c4[nH]c5ccccc5c4ccn3c(=O)c2c1`: the figures for the IC50 on Acetylcholinesterase, in the assay “cells” and against Cholinesterase were 0.0008 µM, over 100 µM and 2.45 µM, respectively. In addition, the Ratio in assay [1] was 2.2; in assay [2], 15.3. Moreover, in assay [5], the Ratio IC50 came to 160. The compound also displayed an inhibition in assay [3] of 20%.
`COc1cc(/C=C/C(=O)CC(=O)/C=C/c2ccc(O)c(OC)c2)ccc1O` [CURCUMIN]: 35.6 µM corresponded to half-maximal inhibition in “cells” (IC50).
Turning to `O=C(CCNc1ccccc1)Nc1ccc2nc3c4[nH]c5ccccc5c4ccn3c(=O)c2c1`, the IC50 came to 0.0875 µM at Acetylcholinesterase and 27.8 µM against Cholinesterase. Moreover, the Ratio in assay [1] amounted to 2.2; in assay [2], 15.3. The compound also showed an inhibition in assay [3] of 20%.
On to `O=C(CCN1CCCCC1)Nc1ccc2nc3c4[nH]c5ccccc5c4ccn3c(=O)c2c1`, for which the 50% inhibitory concentration (IC50) against Acetylcholinesterase is 0.051 µM; in “cells” it was 5 µM; on Cholinesterase, 24 µM. For the same compound, the Ratio stood at 2.2 in assay [1] and 15.3 in assay [2]. Besides, the inhibition in assay [3] is 20%.
